Data set [1] has as its target T1, equine serum BChE [EqBChE] (Equus caballus, UniProt P81908).
T1 construct: equine serum BChE [EqBChE]; from tissue; host or cells: equine serum
Description: biochemical. Particulars: Ellman method, read-out: IC50(nM) ± SD BChE (EqBChE). As for the experimental part:
(§1) The anticholinesterase activity was determined using Ellman’s method, adapted as follows. […] Subsequently, 60 μL of 5,5′-dithiobis(2-nitrobenzoic acid) (DTNB, 1.1 mM) and 30 μL of enzyme solution (electric eel AChE [EeAChE], human AChE [hAChE], or equine serum BChE [EqBChE], 0.20 U/mL) containing 1 mg/mL bovine serum albumin (BSA) were added. […] Enzyme activity was calculated as the percentage relative to untreated controls, subtracting the blank reference. IC50 values were derived via non-linear regression analysis of dose–response curves (Figure S4) using GraphPad Prism v7.0.
In general terms: DTNB colorimetry detects thiols as they appear.

The target in another data set is human AChE [hAChE] (Homo sapiens, UniProt P22303). Briefly: biochemical. Particulars: for IC50: Human AChE, Ellman method, read-out: IC50(nM) ± SD AChE (hAChE) (converted); for SI: SI = EqBChE IC50/hAChE. As for the experimental part:
as §1

Data set [2] is described as follows: Cytotoxicity (neurotoxicity) MTT assay in SH-SY5Y. In kind it is cell-based. Particulars: human, SH-SY5Y neuroblastoma cells; for viability at 24 h, 12.5 µM / viability at 24 h, 25 µM / viability at 24 h, 50 µM: MTT, read-out: Cell viability (% of control); for viability at 24 h: up to 25 μM, read-out: cell viability. How it is done: (§2) The immortalized human neuroblastoma cell line (SH-SY5Y–ATCC: CRL-2226; BCRJ:0223) was used to evaluate cytotoxicity. The cell line was cultured in Dulbecco’s Modified Eagle’s Medium and F12 in a 1:1 ratio (DMEM:F12; Sigma-Aldrich code 0697, Brazil) supplemented with 10% fetal bovine serum (FBS; Sigma-Aldrich code F2442, Brazil) and 1% streptomycin/penicillin (10,000 U/mL and 10,000 μg/mL, respectively; Nova Biotecnologia code BR30110-01, Cotia, SP, Brazil) and incubated at 37 °C with 5% CO2. The culture medium was replaced every 48 h, until the cells reached semi-confluence (≥70%). Cell passage was carried out with the aid of trypsin-EDTA/0.25% solution (Nova Biotecnologia, Brazil) and divided between 5 or 8 mL culture volumes depending on the respective bottles (25 or 75 cm^2) used.
(§3) The in vitro cytotoxicity assay evaluated cell viability using the [3-(4,5-dimethylthiazol-2yl)-2,5-diphenyl tetrazolium] bromide (MTT) reduction assay. Cells were seeded at an initial density of 5.0 × 10^4 cells/well in 96-well plates in a volume of 200 µL. […] In the next step, the culture medium was replaced by the sample solution previously described (Section 3.4.2). After 24 h exposure, the medium was replaced with 100 μL of MTT in phosphate-buffer saline (PBS), pH 7.4, at a concentration of 0.5 mg.mL^−1/well and the plates were incubated for an additional 3 h. Then, the MTT solution was removed, and 100 μL of DMSO was added to solubilize the formazan crystals. The cell viability was measured by absorbance at 562 nm using a Microplate Absorbance Reader (Kasuaki, Brazil). All concentrations tested were evaluated in nine replicates (n = 9). The variation in results was observed using ANOVA followed by Tukey’s test for multiple comparisons through GraphPad Prism v5^TM with a significance level of p < 0.05.
A general note: Formazan colour is commonly taken as a measure of viable cells.

In data set [3] the test system is SH-SY5Y neuroblastoma cells. Description: Cytotoxicity (neurotoxicity) MTT assay in SH-SY5Y. In kind it is cell-based. The conditions noted are these: up to 50 µM. As for the experimental part:
as §2, §3

The subject of data set [4] is H2O2-damaged SH-SY5Y cells. Description: In vitro neuroprotection against H2O2 in SH-SY5Y (MTT). The conditions noted are these: for viability at 12.5 µM: Homo sapiens, SH-SY5Y, read-out: Cell viability (% of control). How it is done: For the neuroprotection assay, the cells previously cultured (Section 3.4.1) were seeded in 96-well plates at a density of 5 × 10^4 cells/well in a volume of 200 µL. The plates were incubated at 37 °C containing 5% CO2 for 24 h. After 24 h, the medium was replaced with the test solutions. […] Finally, the test solutions were removed, the cells were washed with PBS pH 7.4, and the H2O2 solution was added and maintained in contact with the cells for 24 h. After 24 h exposure, the neuroprotective capacity was assessed through cell viability using the MTT assay protocol previously described in Section 3.4.3 [52, 53].

For a further data set, the target named is T2, hMAO-A (Homo sapiens, UniProt P21397).
T2 construct: purchased Sigma-Aldrich, Gillingham, UK
T2 sequence (P21397 1-527): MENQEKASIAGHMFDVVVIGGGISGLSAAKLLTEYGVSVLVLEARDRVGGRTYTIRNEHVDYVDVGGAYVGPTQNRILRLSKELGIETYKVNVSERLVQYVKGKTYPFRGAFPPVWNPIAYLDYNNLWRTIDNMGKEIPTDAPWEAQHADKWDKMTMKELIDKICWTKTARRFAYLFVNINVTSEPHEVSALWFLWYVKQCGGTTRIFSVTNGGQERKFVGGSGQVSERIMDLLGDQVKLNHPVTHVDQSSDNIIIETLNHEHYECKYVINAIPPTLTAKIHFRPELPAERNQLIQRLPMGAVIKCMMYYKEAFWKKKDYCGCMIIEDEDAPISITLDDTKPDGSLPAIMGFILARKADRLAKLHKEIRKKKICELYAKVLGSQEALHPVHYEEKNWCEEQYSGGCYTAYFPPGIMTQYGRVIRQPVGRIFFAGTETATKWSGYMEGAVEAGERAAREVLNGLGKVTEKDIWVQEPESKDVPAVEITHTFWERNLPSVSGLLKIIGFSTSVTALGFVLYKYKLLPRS
Description: MAO-A inhibition, fluorometric Amplex Red assay. In kind it is biochemical. How it is done: The activity of human recombinant membrane-bound monoamine oxidase isoforms A and B (MAO-A/B) (Sigma-Aldrich, Gillingham, UK) in 50 mM potassium phosphate buffer (pH 7.5) was determined by measuring hydrogen peroxide production coupled to the fluorescent dye Amplex Red (Sigma-Aldrich, UK) at a final concentration of 50 μM, in the presence of horseradish peroxidase (HRP, 2.5 U/mL). This coupling reaction generates the fluorescent product resorufin, which was quantified at 30 °C using a fluorescence plate reader. […].
Reactions were initiated by adding the substrate and dye after a 30 min preincubation of the inhibitor with the enzyme. Data were analyzed using a three-parameter equation in GraphPad Prism 7.0 (San Diego, USA). Each reported value represents the mean of at least two independent determinations.

Entries after “also recorded” stand apart in the source; their conditions may differ. Marks after values point to notes of the source that are not given here.

The results in this text go back to PMC12472947 (Pharmaceuticals, 2025).

Sequence of human AChE [hAChE] (P22303 32-614): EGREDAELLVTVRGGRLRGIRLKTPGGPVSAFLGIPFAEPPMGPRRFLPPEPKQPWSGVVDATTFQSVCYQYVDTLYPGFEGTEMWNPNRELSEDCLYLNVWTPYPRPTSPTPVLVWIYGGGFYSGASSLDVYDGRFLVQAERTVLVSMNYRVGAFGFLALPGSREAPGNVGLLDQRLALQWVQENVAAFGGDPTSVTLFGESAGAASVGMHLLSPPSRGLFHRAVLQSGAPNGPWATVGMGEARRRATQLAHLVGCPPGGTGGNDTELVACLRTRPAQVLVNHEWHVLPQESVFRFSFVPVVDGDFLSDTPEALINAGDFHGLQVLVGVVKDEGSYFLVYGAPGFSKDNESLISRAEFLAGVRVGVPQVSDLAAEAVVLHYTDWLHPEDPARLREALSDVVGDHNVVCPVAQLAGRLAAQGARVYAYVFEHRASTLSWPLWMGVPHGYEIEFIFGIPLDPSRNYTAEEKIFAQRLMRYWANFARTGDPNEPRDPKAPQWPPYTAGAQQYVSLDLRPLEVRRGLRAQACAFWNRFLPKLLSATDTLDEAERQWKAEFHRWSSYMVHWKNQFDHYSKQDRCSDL
T1 sequence (P81908 whole entry): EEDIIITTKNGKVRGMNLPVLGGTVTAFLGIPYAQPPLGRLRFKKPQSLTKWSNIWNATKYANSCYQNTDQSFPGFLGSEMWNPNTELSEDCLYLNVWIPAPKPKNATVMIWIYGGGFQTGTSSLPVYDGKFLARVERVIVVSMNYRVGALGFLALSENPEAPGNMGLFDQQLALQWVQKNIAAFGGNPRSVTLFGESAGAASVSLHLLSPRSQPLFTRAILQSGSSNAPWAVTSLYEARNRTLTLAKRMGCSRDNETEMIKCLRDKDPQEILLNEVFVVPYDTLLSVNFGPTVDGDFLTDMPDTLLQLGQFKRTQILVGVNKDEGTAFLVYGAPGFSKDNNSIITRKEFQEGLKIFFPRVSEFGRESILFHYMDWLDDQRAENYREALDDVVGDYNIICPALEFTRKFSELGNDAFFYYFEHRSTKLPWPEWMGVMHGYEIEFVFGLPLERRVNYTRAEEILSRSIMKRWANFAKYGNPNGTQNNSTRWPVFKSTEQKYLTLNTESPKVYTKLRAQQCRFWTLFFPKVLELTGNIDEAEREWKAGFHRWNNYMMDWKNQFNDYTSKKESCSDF

In the case of `O=c1oc2cc(OCCN3CCCCC3)ccc2cc1-c1cn(Cc2ccccc2)nn1` [Compound 1h, 3-(1-Benzyl-1H-1,2,3-triazol-4-yl)-7-(2-(piperidin-1-yl)ethoxy)-2H-chromen-2-one], in data set [1], the IC50 was 3790 ± 400 nM. Further, on human AChE [hAChE], the IC50 is 115 nM and the SI is listed as 33. Also, in data set [2], the viability at 24 h, 12.5 µM stood at 121%; the viability at 24 h, 25 µM was determined as 121%; the viability at 24 h, 50 µM came to 111%; the viability at 24 h is at least 70%. For the same molecule, the neurotoxicity result in data set [3] is given as “non-neurotoxic; also recorded: no neurotoxicity”. In addition, the “neuroprotection against H2O2-induced oxidative stress” value in data set [4] (12.5 µM) is on record as “neuroprotective effects”. Besides, in data set [4], the viability at 12.5 µM stood at 88%. Moreover, the inhibition at 1 µM at hMAO-A (test concentration of 1 µM, read-out: Percentage of MAO-A inhibition ± SEM) came out at 5.2 ± 1.9%.
On to `O=c1oc2cc(OCCCN3CCCCC3)ccc2cc1-c1cn(Cc2ccccc2)nn1` [Compound 1q, 3-(1-Benzyl-1H-1,2,3-triazol-4-yl)-7-(3-(piperidin-1-yl)propoxy)-2H-chromen-2-one], for which, in data set [1], the IC50 amounted to 3560 ± 190 nM. Moreover, at human AChE [hAChE], the half-inhibitory concentration (IC50) is 1410 nM and the SI is ~2 ^e,f. For the same molecule, in data set [2], the viability at 24 h, 12.5 µM amounted to 99%; the viability at 24 h, 25 µM is 105%; the viability at 24 h, 50 µM stood at 84%; the viability at 24 h is at least 70%. Also, in data set [3], the neurotoxicity entry is “non-neurotoxic”. The viability at 12.5 µM in data set [4] came to 68%. The same molecule returned a 50% inhibitory concentration (IC50) against hMAO-A (95% confidence interval in brackets) of 31.1 µM.

What is called IC50 is the concentration that inhibits the measured activity by half. The term viability denotes a read-out of living cells in per cent, often relative to untreated cells. As usually defined, the inhibition is the change of the read-out against control, counted positive when it falls.
